Target: T1, human kinase Mps-1 (Homo sapiens, UniProt P33981)
T1 construct: N-terminally GST-tagged human full length recombinant Mps-1 kinase; GST (N); purchased Invitrogen, Karslruhe, Germany PV4071
T1 sequence (P33981 1-857): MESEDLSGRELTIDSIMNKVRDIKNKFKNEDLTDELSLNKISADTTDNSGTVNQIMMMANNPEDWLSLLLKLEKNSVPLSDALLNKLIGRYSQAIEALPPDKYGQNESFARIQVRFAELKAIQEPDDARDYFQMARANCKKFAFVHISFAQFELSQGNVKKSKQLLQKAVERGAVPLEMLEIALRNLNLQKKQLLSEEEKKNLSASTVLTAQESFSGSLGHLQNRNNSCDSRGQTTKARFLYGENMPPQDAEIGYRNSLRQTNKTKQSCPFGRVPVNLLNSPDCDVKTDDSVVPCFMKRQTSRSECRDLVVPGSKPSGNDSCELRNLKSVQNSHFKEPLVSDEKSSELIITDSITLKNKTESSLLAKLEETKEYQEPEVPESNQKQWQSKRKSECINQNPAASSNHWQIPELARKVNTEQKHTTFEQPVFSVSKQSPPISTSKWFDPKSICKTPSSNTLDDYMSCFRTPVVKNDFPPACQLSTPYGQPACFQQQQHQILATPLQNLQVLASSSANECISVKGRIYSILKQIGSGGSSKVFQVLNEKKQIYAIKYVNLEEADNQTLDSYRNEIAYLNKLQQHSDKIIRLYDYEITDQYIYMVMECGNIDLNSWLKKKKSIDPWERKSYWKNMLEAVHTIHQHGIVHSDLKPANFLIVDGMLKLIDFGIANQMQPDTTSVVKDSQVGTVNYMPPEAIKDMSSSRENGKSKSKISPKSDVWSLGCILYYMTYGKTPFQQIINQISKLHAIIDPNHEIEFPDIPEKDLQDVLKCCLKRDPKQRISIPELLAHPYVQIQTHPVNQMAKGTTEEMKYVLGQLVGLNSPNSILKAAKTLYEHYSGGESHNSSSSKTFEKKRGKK
Test: Mps-1 kinase assay (HTRF)
Type: biochemical
Protocol: The human kinase Mps-1 phosphorylates a biotinylated substrate peptide. Detection of the phosphorylated product is achieved by homogenous time-resolved fluorescence resonance energy transfer (HTRF) from Europium-labelled anti-phospho-Serine/Threonine antibody as donor to streptavidin labelled with cross-linked allophycocyanin (SA-XLent) as acceptor. Compounds are tested for their inhibition of the kinase activity.
N-terminally GST-tagged human full length recombinant Mps-1 kinase (purchased from Invitrogen, Karslruhe, Germany, cat. no PV4071) was used. As substrate for the kinase reaction a biotinylated peptide of the amino-acid sequence […] (C-terminus in amide form, purchased from Biosynthan GmbH, Berlin) was used.
The concentration of Mps-1 in the assay was adjusted to the activity of the enzyme lot and was chosen appropriate to have the assay in the linear range, typical enzyme concentrations were in the range of about 1 nM (final conc. in the 5 μl assay volume).
The resulting mixture was incubated 1 h at 22° C. to allow the binding of the phosphorylated peptide to the anti-phospho(Ser/Thr)-Europium-antibody. Subsequently the amount of phosphorylated substrate was evaluated by measurement of the resonance energy transfer from the Europium-labelled anti-phospho(Ser/Thr) antibody to the Streptavidin-XLent.

IC50 [nM]	Structure (SMILES)
340	CC(=O)Nc1cccc(-c2ccc3nc(Nc4ccccc4OC(F)(F)F)nn3c2)c1 [Example 2.6, N-[3-(2-{[2-(trifluoromethoxy)phenyl]amino}[1,2,4]tri-azolo[1,5-a]pyridin-6-yl)phenyl]acetamide]
3300	CC(=O)Nc1cccc(-c2ccc3nc(Nc4ccc(OC(F)(F)F)cc4)nn3c2)c1 [Example 2.7, N-[3-(2-{[4-(trifluoromethoxy)phenyl]amino}[1,2,4]tri-azolo[1,5-a]pyridin-6-yl)phenyl]acetamide]
1000	CC(=O)Nc1cccc(-c2ccc3nc(Nc4ccc(C#N)cc4)nn3c2)c1 [Example 2.8, N-(3-{2-[(4-cyanophenyl)amino] [1,2,4]triazolo[1,5-a]pyridin-6-yl}phenyl)acetamide]
1800	CC(=O)Nc1cccc(-c2ccc3nc(Nc4ccc(C(C)C)cc4)nn3c2)c1 [Example 2.9, N-[3-(2-{[4-(propan-2-yl)phenyl]amino}[1,2,4]triazolo[1,5-a]pyridin-6-yl)phenyl]acetamide]
130	CCOc1ccccc1Nc1nc2ccc(-c3cccc(NC(C)=O)c3)cn2n1 [Example 2.10, N-(3-{2-[(2-ethoxyphenyl)amino] [1,2,4]triazolo[1,5-a]pyridin-6-yl}phenyl)acetamide]
3500	COc1cccnc1Nc1nc2ccc(-c3cccc(NC(C)=O)c3)cn2n1 [Example 2.11, N-(3-{2-[(3-methoxypyridin-2-yl)amino][1,2,4]triazolo [1,5-a]pyridin-6-yl}phenyl)acetamide]
200	COc1cc(C#N)ccc1Nc1nc2ccc(-c3cccc(NC(C)=O)c3)cn2n1 [Example 2.12, N-(3-{2-[(4-cyano-2-methoxyphenyl)amino] [1,2,4]triazolo[1,5-a]pyridin-6-yl}phenyl)acetamide]
860	N#Cc1ccccc1Nc1nc2ccc(-c3ccccc3)cn2n1 [Example 3.1, 2-[(6-phenyl[1,2,4]triazolo[1,5-a]pyridin-2-yl)amino]benzonitrile]
52	N#Cc1ccccc1Nc1nc2ccc(-c3cccc(CO)c3)cn2n1 [Example 3.2, 2-({6-[3-(hydroxymethyl)phen-yl][1,2,4]triazolo[1,5-a]pyridin-2-yl}amino)benzonitrile]
630	Cc1cccc(-c2ccc3nc(Nc4ccccc4C#N)nn3c2)c1 [Example 3.3, 2-{[6-(3-methylphenyl)[1,2,4]triazolo[1,5-a]pyridin-2-yl]amino}benzonitrile]
6100	CC(=O)Nc1ccccc1-c1ccc2nc(Nc3ccccc3C#N)nn2c1 [Example 3.4, N-(2-{2-[(2-cyanophenyl)amino] [1,2,4]triazolo[1,5-a]pyridin-6-yl}phenyl)acetamide]
240	CS(=O)(=O)Nc1cccc(-c2ccc3nc(Nc4ccccc4C#N)nn3c2)c1 [Example 3.5, N-(3-{2-[(2-cyanophenyl)amino] [1,2,4]triazolo[1,5-a]pyridin-6-yl}phenyl)methane-sulfonamide]
940	N#Cc1ccccc1Nc1nc2ccc(-c3ccc4cc[nH]c4c3)cn2n1 [Example 3.6, 2-{[6-(1H-indol-6-yl)[1,2,4]triazolo[1,5-a]pyridin-2-yl]amino}benzonitrile]
140	N#Cc1ccccc1Nc1nc2ccc(-c3ccc(C(N)=O)cc3)cn2n1 [Example 3.7, 4-{2-[(2-cyanophenyl)amino] [1,2,4]triazolo[1,5-a]pyridin-6-yl}benzamide]
110	N#Cc1ccccc1Nc1nc2ccc(-c3cccc(C(N)=O)c3)cn2n1 [Example 3.8, 3-{2-[(2-cyanophenyl)amino] [1,2,4]triazolo[1,5-a]pyridin-6-yl}benzamide]
740	Cc1cc(O)ccc1-c1ccc2nc(Nc3ccccc3C#N)nn2c1 [Example 3.9, 2-{[6-(4-hydroxy-2-methylphenyl)[1,2,4]triazolo[1,5-a]pyridin-2-yl]amino}benzonitrile]
24	CNC(=O)c1ccc(-c2ccc3nc(Nc4ccccc4C#N)nn3c2)cc1 [Example 3.10, 4-{2-[(2-cyanophenyl)amino] [1,2,4]triazolo[1,5-a]pyridin-6-yl}-N-methylbenzamide]

IC50 [nM]	Structure (SMILES)
890	N#Cc1ccccc1Nc1nc2ccc(-c3cccc(F)c3)cn2n1 [Example 3.12, 2-{[6-(3-fluorophenyl)[1,2,4]triazolo[1,5-a]pyridin-2-yl]amino}benzonitrile]
1200	COc1ccccc1-c1ccc2nc(Nc3ccccc3C#N)nn2c1 [Example 3.13, 2-{[6-(2 methoxyphenyl)[1,2,4]triazolo[1,5-a]pyridin-2-yl]amino}benzonitrile]
770	N#Cc1ccccc1Nc1nc2ccc(-c3ccc(CO)cc3)cn2n1 [Example 3.14, 2-({6-[4-(hydroxymethyl)phen-yl][1,2,4]triazolo[1,5-a]pyridin-2-yl}amino)benzonitrile]
28	N#Cc1ccccc1Nc1nc2ccc(-c3cccc(O)c3)cn2n1 [Example 3.17, 2-{[6-(3-hydroxyphenyl)[1,2,4]triazolo[1,5-a]pyridin-2-yl]amino}benzonitrile]
96	COc1c(C)cc(-c2ccc3nc(Nc4ccccc4C#N)nn3c2)cc1C [Example 3.19, 2-{[6-(4-methoxy-3,5-dimethylphenyl)[1,2,4]triazolo[1,5-a]pyridin-2-yl]amino}benzonitrile]
1500	N#Cc1ccc(-c2ccc3nc(Nc4ccccc4C#N)nn3c2)cc1 [Example 3.20, 2-{[6-(4-cyanophenyl)[1,2,4]triazolo[1,5-a]pyridin-2-yl]amino}benzonitrile]
210	N#Cc1ccccc1Nc1nc2ccc(-c3ccc4[nH]ccc4c3)cn2n1 [Example 3.21, 2-{[6-(1H-indol-5-yl)[1,2,4]triazolo[1,5-a]pyridin-2-yl]amino}benzonitrile]
46	N#Cc1ccccc1Nc1nc2ccc(-c3ccc(N)cc3)cn2n1 [Example 4.2, 2-{[6-(4-aminophenyl)[1,2,4]triazolo[1,5-a]pyridin-2-yl]amino}benzonitrile]
28	CC(=O)Nc1ccc(-c2ccc3nc(Nc4ccccc4C#N)nn3c2)cc1 [Example 4.3, N-(4-{2-[(2-cyanophenyl)amino][1,2,4]triazolo[1,5-a]pyridin-6-yl}phenyl)acetamide]
72	COc1ccccc1Nc1nc2ccc(-c3ccc(N)cc3)cn2n1 [Example 5.2, 6-(4-aminophenyl)-N-(2-methoxyphenyl)[1,2,4]triazolo[1,5-a]pyridin-2-amine]
76	COc1ccccc1Nc1nc2ccc(-c3ccc(NC(C)=O)cc3)cn2n1 [Example 5.3, N-(4-{2-[(2-methoxyphenyl)amino][1,2,4]triazolo[1,5-a]pyridin-6-yl}phenyl)acetamide]
220	O=C(CCl)Nc1ccc(-c2ccc3nc(Nc4ccccc4C(F)(F)F)nn3c2)cc1 [Example 6.3, 2-chloro-N-[4-(2-{[2-(trifluoromethyl)phenyl]amino}[1,2,4]triazolo[1,5-a]pyridin-6-yl)phenyl]acetamide]
190	COc1ccccc1Nc1nc2ccc(-c3cccc(NS(C)(=O)=O)c3)cn2n1 [Example 8.3, N-(3-{2-[(2-methoxyphenyl)amino][1,2,4]triazolo[1,5-a]pyridin-6-yl}phenyl)methanesulfonamide]
92	COc1ccccc1Nc1nc2ccc(-c3cccc(NC(=O)NC(C)C)c3)cn2n1 [Example 8.4, 1-(3-{2-[(2-methoxyphenyl)amino][1,2,4]triazolo[1,5-a]pyridin-6-yl}phenyl)-3-propan-2-ylurea]
500	CCOC(=O)c1cccc(-c2ccc3nc(Nc4ccccc4C#N)nn3c2)c1 [Example 9.1, ethyl 3-{2-[(2-cyanophenyl)amino][1,2,4]triazolo[1,5-a]pyridin-6-yl}benzoate]
72	N#Cc1ccccc1Nc1nc2ccc(-c3cccc(C(=O)O)c3)cn2n1 [Example 9.2, 3-{2-[(2-cyanophenyl)amino][1,2,4]triazolo[1,5-a]pyridin-6-yl}benzoic acid]
8.8	CC(C)NC(=O)c1cccc(-c2ccc3nc(Nc4ccccc4C#N)nn3c2)c1 [Example 9.4, 3-{2-[(2-cyanophenyl)amino][1,2,4]triazolo[1,5-a]pyridin-6-yl}-N-(propan-2-yl)benzamide]

— patent US20130121994A1, “TRIAZOLOPYRIDINE DERIVATIVES” (BAYER INTELLECTUAL PROPERTY GMBH, priority 2009, published 2013)
